# Patent publication US5773421A, “Antifungal fusacandins” (Abbott Laboratories, priority 1995, dated 1998)
# Like-named read-outs stand apart in the source and are kept apart here.
# Columns and labels:
# Assay in all cases: MIC by agar dilution method
# Assay type in all cases: cell-based
# Candida albicans CCH 442 = details: CCH442; Table 6c, 3rd value column (head printed II); III Candida albicans CCH 442; agar dilution; read-out: MIC II
# Protocol: (§1) Minimal inhibitory concentrations (MICs) were determined by an agar dilution method. The test compounds were serially diluted in MeOH and 0.2 mL portions were mixed with 20 mL of molten, cooled Sabouraud dextrose agar (Difco). Yeast cell inoculum was prepared by growing cultures on Sabouraud dextrose agar for 18 hours at 32° C. and suspending the cells in phosphate buffered saline. Filamentous fungi were grown under the same conditions for 4 days to obtain spores. The inoculum level for all cultures was adjusted to 10^4 cells using a Petroff-Hauser cell counter. The glutarimide antifungal compounds cycloheximide or amphotericin B were used as a control. Inoculated test plates were incubated at 32° C. and examined after 20 hours.
# [1] = test system: Candida albicans ATCC 62376
# Protocol: as §1
# [2] = test system: Candida albicans ATCC 38247
# Protocol: as §1
# [3] = test system: Candida albicans ATCC 10231
# Protocol: as §1
# Candida albicans 579a = details: read-out: MIC II
# Protocol: as §1
# [4] = ATCC62376, Table 6c, V Candida albicans ATCC 62376, agar dilution, read-out: MIC V
# [5] = ATCC38247, Table 6c, IV Candida albicans ATCC 38247, agar dilution, read-out: MIC IV
# [6] = ATCC10231, Table 6c, I Candida albicans ATCC 10231, agar dilution, read-out: MIC I
# [7] = Table 6c, II Candida albicans 579a, agar dilution
SMILES,MIC (Candida albicans CCH 442) [mg/L],"MIC [1, 4] [mg/L]","MIC [2, 5] [mg/L]","MIC [3, 6] [mg/L]",MIC (Candida albicans 579a; [7]) [mg/L],"MIC ([1]; Candida albicans, ATCC62376, read-out: MIC V) [mg/L]","MIC ([2]; Candida albicans, ATCC38247, read-out: MIC IV) [mg/L]","MIC ([3]; Candida albicans, ATCC10231, read-out: MIC I) [mg/L]","MIC (Candida albicans 579a; Candida albicans, 579A) [mg/L]"
CCCCC/C=C/C=C/[C@@H](O)C/C=C/C=C/C(=O)O[C@@H]1[C@@H](O)[C@H](c2c(O)cc(O)cc2CO)O[C@H](CO)[C@H]1O[C@@H]1O[C@H](COC(=O)c2ccc3cc(OCc4ccccc4)ccc3c2)[C@H](O)[C@H](O)[C@H]1O[C@@H]1O[C@H](CO)[C@H](O)[C@H](O)[C@H]1O [Example 24],25,25,50,25,25,–,–,–,–
CCCCC/C=C/C=C/[C@@H](O)C/C=C/C=C/C(=O)O[C@@H]1[C@@H](O)[C@H](c2c(O)cc(O)cc2CO)O[C@H](CO)[C@H]1O[C@@H]1O[C@H](COC(=O)c2cc3ccccc3c3ccccc23)[C@H](O)[C@H](O)[C@H]1O[C@@H]1O[C@H](CO)[C@H](O)[C@H](O)[C@H]1O [Example 27],3.12,–,–,–,–,3.12,6.25,3.12,3.12
CCCCC/C=C/C=C/[C@@H](O)C/C=C/C=C/C(=O)O[C@@H]1[C@@H](O)[C@H](c2c(O)cc(O)cc2CO)O[C@H](CO)[C@H]1O[C@@H]1O[C@H](COC(=O)c2ccc(-c3ccc(O)cc3)cc2)[C@H](O)[C@H](O)[C@H]1O[C@@H]1O[C@H](CO)[C@H](O)[C@H](O)[C@H]1O [Example 41],6.25,12.5,6.25,12.5,6.25,–,–,–,–

# These reach a lower MIC (Candida albicans CCH 442). Values come first.
MIC (Candida albicans CCH 442) [mg/L],"MIC [1, 4] [mg/L]","MIC [2, 5] [mg/L]","MIC [3, 6] [mg/L]",MIC (Candida albicans 579a; [7]) [mg/L],SMILES,"MIC ([1]; Candida albicans, ATCC62376, read-out: MIC V) [mg/L]","MIC ([2]; Candida albicans, ATCC38247, read-out: MIC IV) [mg/L]","MIC ([3]; Candida albicans, ATCC10231, read-out: MIC I) [mg/L]","MIC (Candida albicans 579a; Candida albicans, 579A) [mg/L]"
0.78,0.78,3.12,1.56,0.78,CCCCC/C=C/C=C/[C@@H](O)C/C=C/C=C/C(=O)O[C@@H]1[C@@H](O)[C@H](c2c(O)cc(O)cc2CO)O[C@H](CO)[C@H]1O[C@@H]1O[C@H](COC(=O)c2ccc(-c3ccc(-c4ccccc4)cc3)cc2)[C@H](O)[C@H](O)[C@H]1O[C@@H]1O[C@H](CO)[C@H](O)[C@H](O)[C@H]1O [Example 33],–,–,–,–
1.56,3.12,0.78,3.12,0.78,CCCCC/C=C/C=C/[C@@H](O)C/C=C/C=C/C(=O)O[C@@H]1[C@@H](O)[C@H](c2c(O)cc(O)cc2CO)O[C@H](CO)[C@H]1O[C@@H]1O[C@H](COC(=O)c2ccc3ccccc3c2)[C@H](O)[C@H](O)[C@H]1O[C@@H]1O[C@H](CO)[C@H](O)[C@H](O)[C@H]1O [Example 19],–,–,–,–
1.56,1.56,1.56,1.56,0.78,CCCCC/C=C/C=C/[C@@H](O)C/C=C/C=C/C(=O)O[C@@H]1[C@@H](O)[C@H](c2c(O)cc(O)cc2CO)O[C@H](CO)[C@H]1O[C@@H]1O[C@H](COC(=O)c2ccc(-c3ccc4c(c3)OCO4)cc2)[C@H](O)[C@H](O)[C@H]1O[C@@H]1O[C@H](CO)[C@H](O)[C@H](O)[C@H]1O [Example 36],–,–,–,–
0.78,0.78,0.78,0.78,0.78,CCCCC/C=C/C=C/[C@@H](O)C/C=C/C=C/C(=O)O[C@@H]1[C@@H](O)[C@H](c2c(O)cc(O)cc2CO)O[C@H](CO)[C@H]1O[C@@H]1O[C@H](COC(=O)c2ccc(-c3ccc(OCCC)cc3)cc2)[C@H](O)[C@H](O)[C@H]1O[C@@H]1O[C@H](CO)[C@H](O)[C@H](O)[C@H]1O [Example 42],–,–,–,–
